Source: US20230111656A1, “METHODS OF CONTROLLING OR PREVENTING INFESTATION OF SOYBEAN PLANTS BY THE PHYTOPATHOGENIC MICROORGANISM CORYNESPORA CASSIICOLA” (SYNGENTA CROP PROTECTION AG, priority 2020, published 2023)

System: Corynespora cassiicola
Experiment: Liquid culture growth inhibition of Corynespora cassiicola (PDB, 96-well microtiter plate, photometric)
Format: cell-based
Settings: 24 C, 3-4 days, photometric at 620 nm, compared to untreated control
Description: Conidia of the fungus from cryogenic storage were directly mixed into nutrient broth (PDB potato dextrose broth). A DMSO solution of the test compounds was placed into a microtiter plate (96-well format) and the nutrient broth containing the fungal spores was added to it. The test plates were incubated at 24 C and the inhibition of growth (% control of Corynespora cassiicola) was determined photometrically after 3-4 days at 620 nm. The activity of a compound is derived by comparing the inhibition of growth in the treated test solution to the growth in the untreated check. The concentration of the compounds was 0.74, 0.25, and 0.082 ppm.

Structure (SMILES): CC1(C)N=C(c2cnc3ccccc3c2)c2ccccc2C1(F)F
- control of Corynespora cassiicola (inhibition of growth) (0.082 ppm): at least 20%
- control of Corynespora cassiicola (inhibition of growth) (0.25 ppm): at least 50%
- control of Corynespora cassiicola (inhibition of growth) (0.74 ppm): at least 70%
